Key:
Format in all cases: in vivo, mouse
DIO mice [1] = assay: Chronic GIPA-1 study: circulating lipids, liver and fat depots in DIO mice; settings: day 28, n = 10
Description: 23-week-old male C57BL/6JRj mice (n = 40), fed a HFD (SSNIFF® diet #12492[60% fat, 20% protein, 20% carbohydrate]) for 14 weeks, were distributed into 4 test groups and received daily either vehicle, liraglutide (0.2 mg/kg/day), GIPA-1 (~4.5 mg/kg/day) or liraglutide + GIPA-1 for 4 weeks while still maintained on HFD. GIPA-1 was delivered using minipumps in order to achieve sufficient GIPR antagonism based on the properties of this peptide (Fig 2A). Liraglutide was dissolved in phosphate-buffered saline (PBS) plus 0.1% bovine serum albumin (BSA) (vehicle 1) and GIPA-1 in DMSO/propylene glycol (50/50 volume per volume) (vehicle 2). 100 μL minipumps (Alzet) were filled with GIPA-1 (30 mg/mL) or vehicle 2 and kept in 0.9% saline at 37°C overnight. The minipump was placed subcutaneously through a 1-cm long incision in the neck with the animal under isoflurane anesthesia. Animals were treated with analgesics on day 0–3 (NSAID, carprofen […] SC QD). From day 0 (first dose) through day 28, mice received one of the following four treatments per day: (1) vehicle 1 (subcutaneous injection (SC)) and continuous infusion of vehicle 2 via osmotic minipump; (2) 0.2 mg/kg liraglutide (SC) and continuous infusion of vehicle 2 via osmotic minipump; (3) vehicle 1 (SC) and continuous infusion of GIPA-1 (~4.5 mg/kg/day; 56.8 nmol/kg/h) via osmotic minipump; and (4) liraglutide (0.2 mg/kg liraglutide, SC) plus continuous infusion of GIPA-1 (~4.5 mg/kg/day) via osmotic minipump. Dose levels of GIPA-1 were based on targeting plasma exposure levels sufficient to antagonise endogenous GIP and selected based on in vitro antagonism data. Fasted (4 hrs) blood glucose and insulin levels were measured on study day -3, 14 and 27. OGTT was performed on day 21 of the study. On the day of the OGTT the fasted animals received their daily doses of vehicles and liraglutide thirty minutes before receiving a glucose bolus (2 g/kg). Blood glucose was measured before their daily dosing and at 0, 15, 30 60, 120, 180 min after glucose administration. Plasma insulin was measured at 0 and 15 min. Whole body weight and food intake were measured throughout the study period. On the termination day (day 28), liver, epididymal fat depot, mesenteric fat depot, retroperitoneal fat depot and inguinal fat depot were dissected and weighted. Blood collected from the tail vein was used for determination of free fatty acids (FFAs) plasma concentration and blood collected via cardiac puncture was used for determination of terminal plasma triglyceride (TG) and total cholesterol (TC).
(§1) Fasting blood glucose was measured using a BIOSEN c-Line glucose meter (EKF-Diagnostics), insulin was measured using the Meso Scale Diagnostics platform, TG and TC were measured using commercial kits (Roche Diagnostics) on the Cobas C-501 autoanalyzer (Roche), and FFA levels were measured using a Wako Chemicals kit on the Cobas C-501 autoanalyzer, all according to the manufacturers’ instructions. Homeostatic model assessment of insulin resistance (HOMA-IR) was calculated using the following equation: [fasting serum glucose (mmol/L) × fasting serum insulin (pmol/L) / 22.5] to assess insulin resistance.
Fig 4 The effect of GIPR antagonism alone or in combination with liraglutide on lipid homeostasis in DIO mice. […] Statistical analysis was calculated using one-way ANOVA with Dunnett’s post-hoc test. *: p< 0.05, **: p < 0.01, ***: p < 0.001, ****: p<0.0001 compared to vehicle. […]

DIO mice [2] = assay: Chronic GIPA-1 study: fasting blood glucose, plasma insulin and HOMA-IR in DIO mice; settings: 4 h fasted, liraglutide 0.2 mg/kg/day SC, GIPA-1 ~4.5 mg/kg/day minipump, n = 10, vs vehicle
Description: (§2) 23-week-old male C57BL/6JRj mice (n = 40), fed a HFD (SSNIFF® diet #12492[60% fat, 20% protein, 20% carbohydrate]) for 14 weeks, were distributed into 4 test groups and received daily either vehicle, liraglutide (0.2 mg/kg/day), GIPA-1 (~4.5 mg/kg/day) or liraglutide + GIPA-1 for 4 weeks while still maintained on HFD. GIPA-1 was delivered using minipumps in order to achieve sufficient GIPR antagonism based on the properties of this peptide (Fig 2A). Liraglutide was dissolved in phosphate-buffered saline (PBS) plus 0.1% bovine serum albumin (BSA) (vehicle 1) and GIPA-1 in DMSO/propylene glycol (50/50 volume per volume) (vehicle 2). […] Fasted (4 hrs) blood glucose and insulin levels were measured on study day -3, 14 and 27. […] Blood glucose was measured before their daily dosing and at 0, 15, 30 60, 120, 180 min after glucose administration. Plasma insulin was measured at 0 and 15 min. Whole body weight and food intake were measured throughout the study period. […]
as §1, with “Homeostatic model assessment of insulin resistance (HOMA-IR) was calculated using the following equation: [fasting serum glucose (mmol/L) × fasting serum insulin (pmol/L) / 22.5] to assess insulin resistance.” left out

DIO mice [3] = assay: Chronic GIPA-1 study: OGTT and insulin responses in DIO mice; settings: n = 10
Description: as §2, with “2). 100 μL minipumps (Alzet) were filled with GIPA-1 (30 mg/mL) or vehicle 2 and kept in 0.9% saline at 37°C overnight. The minipump was placed subcutaneously through a 1-cm long incision in the neck with the animal under isoflurane anesthesia. Animals were treated with analgesics on day 0–3 (NSAID, carprofen 50 mg/kg SC QD).” for “2).”
Fig 3 Effects of GIPA-1 and GIPA-2 on oral glucose tolerance and insulin responses in DIO mice. […] Statistical analysis was calculated using two-way ANOVA with Tukey’s post-hoc test and one-way ANOVA with Dunnett’s post-hoc test. *: p< 0.05, **: p < 0.01, ***: p < 0.001, ****: p<0.0001 compared to vehicle.

liraglutide
circulating total cholesterol (TC) (DIO mice [1]): significantly reduced circulating TC and liver TG concentrations | liver TG (DIO mice [1]): significantly reduced circulating TC and liver TG concentrations | plasma FFA (DIO mice [1]): no effect on either plasma TG or concentrations of circulating FFA | plasma TG (DIO mice [1]): no effect on either plasma TG or concentrations of circulating FFA | retroperitoneal fat weight (DIO mice [1]): reduced in the GIPA-1 study in both the liraglutide and combination groups | fasting blood glucose (DIO mice [2]; days 14 and 27): significant reductions for the duration of the study | fasting plasma insulin (DIO mice [2]): reduced in both the liraglutide and combination groups. This was significant for the combination, but not for liraglutide monotherapy | insulin at time 0 of the OGTT (DIO mice [3]; day 21, fasted, GIPA-1 study): liraglutide-induced decrement in insulin at time 0 of the OGTT | baseline blood glucose (-30 min) of OGTT (DIO mice [3]; day 21, GIPA-1 study): lower in the liraglutide group and in the combination group | glucose excursion in OGTT (DIO mice [3]; day 21, oral glucose 2 g/kg, liraglutide 0.2 mg/kg SC, GIPA-1 ~4.5 mg/kg/day minipump): beneficial glucose lowering effects of liraglutide
